Common to all, as to format: biochemical
A short description of experiment [1]: ABTS radical cation scavenging (decolorization) test. Conditions: 734 nm, 30 min. As to the method:
(§1) The in vitro antioxidant ability of the compounds synthesized in this work was evaluated using three different assays, including (i) the ABTS radical cation reduction-decolorization test, which uses the technique of Khan et al. consisting of the reduction of the cation radical by an antioxidant through the discoloration measured by absorption at the wavelength of 734 nm; (ii) interaction with the stable free radical DPPH, based on Bassene’s method, in which the scavenging of DPPH radicals is carried out by a colorimetric method consisting of the reduction of the DPPH radical, determined by its absorption at a wavelength of 517 nm; and (iii) the FRAP test according to the protocol of Path Canada, based on the ability of a substance to reduce Fe^3+ ions to Fe^2+ ions, which, in the presence of 1,10-phenanthroline, form a red-orange complex whose optical density can be measured at 505 nm.
The modified technique by Khan et al. was used to scavenge ABTS^+• cation radicals through a discoloration test. In this test, potassium permanganate (KMnO4) or potassium persulphate (K2S2O8) reacts with ABTS to generate a blue-green ABTS^+• radical. Antioxidants reduce this radical, leading to a measurable colour change at 734 nm, proportional to the antioxidant concentration. The antioxidant capacity is assessed by comparing the intensity reduction of ABTS colour with that of a reference antioxidant, gallic acid. Stock and dilute solutions of synthetic compounds were prepared as detailed in §3.2.5.1. Diluted concentrations were (50, 25, 12.5, 6.25, 3.125, 1.5625 and 0.78125)/Mi in mM. The ABTS solution was obtained by mixing ABTS with K2S2O8, producing an intense blue colour. The ABTS^+• radical was generated by combining equal volumes of a 4.9 mM K2S2O8 solution and a 7 mM ABTS stock solution, stored in the dark at room temperature for 15 h before use. The 7 mM ABTS stock was then diluted 20 times with distilled water. A total of 25 µl of each dilution was added to wells along with 75 µl of 0.175 mM ABTS+ solution. After 30 min of incubation in the dark at room temperature, optical densities were measured at 734 nm. Negative controls contained the ABTS reagent without synthesized compounds, while positive controls used gallic acid at the same final concentrations as the compounds. Compounds were also tested alone to assess fluorescence. The reduction of ABTS results in a blue discoloration, with lower absorbance indicating higher antioxidant activity.
(§2) The percentages of scavenging or 50% reduction were calculated using gallic acid as a standard for 100% reduction. The concentration of radical scavengers needed to neutralize 50% of free radicals, referred to as SC50, was determined using GraphPad Prism 8.0.1 software (244).

Experiment [2] is described as follows: DPPH radical scavenging test. Conditions: 517 nm, 30 min. The method, then: as §1
The DPPH radical trapping protocol is based on Bassene’s method, modified for colorimetric analysis. DPPH is a stable purple organic nitrogen radical that absorbs light at 517 nm. When an anti-free radical agent is present, DPPH is reduced to a stable yellow compound, indicated by a loss of colour between 470 and 517 nm. A 0.02% DPPH solution was made with ethanol and stored in a sealed jar in the dark. Stock solutions of the synthesized compounds were prepared by dissolving 100 mg of each in 1 ml of DMSO, and the final concentration of DMSO concentration in the first well was 0.5%. These stocks were then diluted to achieve concentrations (500, 250, 125, 62.5, 31.25, 15.625 and 7.8125)/Mi in mM (Mi: molecular weight of each synthetic compound). Each dilution (25 µl) was put to the wells and 75 µl of the DPPH solution (0.02%) were added. Optical densities were measured at 517 nm after 30 min of incubation in the dark. The negative control used DPPH alone, while the positive control used gallic acid treated with solutions of the synthesized compounds at final concentrations (50, 25, 12.5, 6.25, 3.125, 1.5625 and 0.78125)/Mi in mM. Synthesized compounds were also tested alone to assess fluorescence.
Assays were performed in duplicate, and results were averaged. Percentage inhibition (PI), reflecting the antioxidant activity related to the DPPH˙ radical scavenging effect, was calculated using the following formula:
(PI)=Acontrol−Atest/Acontrol×100,
where Acontrol = absorbance of the control sample and Atest = absorbance of the tested sample.
as §2
On the technique in general: DPPH is a stable violet radical that fades when it is reduced.

Experiment [3] in a line: Ferric reducing antioxidant power (FRAP) test. Conditions: 505 nm. The method, then:
as §1
The Fe^3+ reduction test followed Path Canada’s protocol with some modifications, assessing the reduction of Fe^3+ ions to Fe^2+ ions, which form a red-orange complex with 1,10-phenanthroline, measurable at 505 nm. The colour intensity correlates with the amount of Fe^3+ reduced. Four solutions were prepared: 1.2 mg ml^−1 of Fe^3+ solution (1.2 mg FeCl3 in 1 ml distilled H2O), 0.2% ortho-phenanthroline solution (200 mg powder in 100 ml ethanol), 2 mg ml^−1 of gallic acid solution (2 mg gallic acid in 1 ml distilled H2O) as a positive control, stock and dilute solutions of the synthesized compounds (see §3.2.5.1). In a 96-well microplate, 180 µl distilled H2O was added to the first column and 100 µl to others for dilution. Each compound solution (20 µl at 10 mg ml^−1) was mixed with 25 µl Fe^3+ solution and incubated for 15 min in the dark at room temperature. Afterwards, 50 µl ortho-phenanthroline solution was added, followed by another 15 min incubation. Optical density was measured at 505 nm using a TECAN M200 plate reader. The positive control was treated similarly to the DPPH and ABTS assays.
as §2

[4] abbreviates: first replicate, read-out: ABTS SC50(1).
The mark [5] stands for this setting: second replicate, read-out: ABTS SC50(2).
[6] abbreviates: first replicate, read-out: DPPH SC50(1).
Setting [7] is: mean of duplicate, read-out: DPPH mean SC50.
Where [8] appears, read: second replicate, read-out: DPPH SC50(2).
Setting [9] is: first replicate, read-out: FRAP SC50(1).
[10] abbreviates: mean of duplicate, read-out: FRAP mean SC50.
The mark [11] stands for this setting: second replicate, read-out: FRAP SC50(2).

`CCCCCCCC/C=C\CCCCCCCC(=O)OCCOC(=O)C(C)c1ccc(CC(C)C)cc1` (centres unmarked) [Compound 5b, 2-((2-(4-isobutylphenyl)propanoyl)oxy)ethyl oleate]: the EC50 in experiment [1] (setting [4]) worked out at 2150 µM; in experiment [1] (mean of duplicate, read-out: ABTS mean SC50) it was 2130 µM; in experiment [1] (setting [5]), 2110 µM; in experiment [2] (setting [6]) it was 6440 µM; in experiment [2] (setting [7]), 6480 µM; in experiment [2] (setting [8]) it was 6520 µM. Further, the EC50 in experiment [3] (setting [9]) worked out at 6160 µM; in experiment [3] (setting [10]) it was 6180 µM; in experiment [3] (setting [11]), 6200 µM.
As for `O=C(O)c1cc(O)c(O)c(O)c1` [gallic acid, reference compound], the EC50 was 38 µM in experiment [1] (setting [4]); 38 µM in experiment [1] (setting [5]); 15 µM in experiment [2] (setting [6]); 15 µM in experiment [2] (setting [7]); 15 µM in experiment [2] (setting [8]); 59 µM in experiment [3] (setting [9]). The EC50 in experiment [3] (setting [10]) turned out to be 61 µM; in experiment [3] (setting [11]), 62 µM.

For the origin of these results see publication PMC12074795, “Synthesis and biological evaluation of esterified anti-inflammatory drugs with ethylene glycol linkers: cytotoxicity, anti-inflammatory and antioxidant properties” (Royal Society Open Science, 2025).
